Results: patent publication US7560466B2, “Methods of treating or preventing autoimmune diseases with 2,4-pyrimidinediamine compounds” (Rigel Pharmaceuticals, Inc., priority 2003, dated 2009)
Where a name gives a salt, the structure may show the parent alone. Read-outs that look alike come from different tables or passages of the source.

Tested on: cultured human mast cells (CHMC), IgE-induced degranulation
Assay: CHMC low cell density IgE activation: tryptase assay
Format: cell-based
Experimental: Inhibition of degranulation was measured at both low and high cell density by quantifying the release of the granule specific factors tryptase, histamine and hexosaminidase. Inhibition of release and/or synthesis of lipid mediators was assessed by measuring the release of leukotriene LTC4 and inhibition of release and/or synthesis of cytokines was monitored by quantifying TNF-α, IL-6 and IL-13. Tryptase and hexosaminidase were quantified using fluorogenic substrates as described in their respective examples. […] The protocols of the various assays are provided below.
A second phase is performed to convert the expanded CD34-negative progenitor cells into differentiated mucosal mast cells. These mucosal cultured human mast cells (“CHMC”) are derived from CD34+ cells isolated from umbilical cord blood and treated to form a proliferated population of CD34-negative progenitor cells, as described above. […] Also, the cytokine composition of the medium was modified such that it contained SCF (200 ng/mL) and recombinant human IL-6 (200 ng/mL; Peprotech, Catalog No. 200-06 reconstituted to 100 ug/mL in sterile 10 mM acetic acid) (“CM/SCF/IL-6 medium”).
Pellet CHMC cells (980 rpm, 10 min) and resuspend in pre-warmed MT. Add 65 ul of cells to each 96-well plate. Depending on the degranulation activity for each particular CHMC donor, load 1000-1500 cells/well. Mix four times followed by a 1 hr incubation at 37° C. […] Stimulate cells by adding 25 ul of 6× anti-IgE solution to the appropriate plates. Add 25 ul MT to un-stimulated control wells. Mix twice following addition of the anti-IgE. Incubate at 37° C. for 30 minutes. […] Spin plates at 1000 rpm for 10 min to pellet cells. Transfer 25 ul of supernatant to a 96-well black bottom plate and add 100 ul of freshly diluted tryptase substrate solution to each well. Incubate plates at room temperature for 30 min.
In Table 1, all reported values are IC50s (in μM). […] In Table 1, all reported values are IC50s (in μM).

[1] = CHMC low cell density, 3pt, read-out: LD Tryptase, CHMC, IgE, 3pt
[2] = CHMC low cell density, 8pt, read-out: LD Tryptase, CHMC, IgE, 8pt
[3] = low cell density CHMC, 8-point, read-out: LD Tryptase, CHMC, IgE, 8pt
[4] = low cell density CHMC, 3-point, read-out: LD Tryptase, CHMC, IgE, 3pt
[5] = low cell density CHMC, 3pt, read-out: LD Tryptase, CHMC, IgE, 3pt
[6] = low cell density CHMC, 8pt, read-out: LD Tryptase, CHMC, IgE, 8pt

Molecule | IC50 [1] | IC50 [2] | IC50 [3] | also measured
CNC(=O)COc1cccc(Nc2ncc(F)c(Nc3ccc4c(n3)NC(=O)C(C)(C)O4)n2)c1 [Compound 986, N4-(2,2-Dimethyl-3-oxo-4H-5-pyrid[1,4]oxazin-6-yl)-5-fluoro-N2-[3-(N-methylamino)carbonylmethyleneoxyphenyl]-2,4-pyrimidinediamine Hydrogen Chloride Salt] | < 10 µM | < 10 µM |  | 
CC1(C)Oc2ccc(Nc3nc(Nc4ccc5c(cnn5CCCNS(=O)(=O)C(F)(F)F)c4)ncc3F)nc2NC1=O [Compound 844, N4-(2,2-Dimethyl-3-oxo-4H-5-pyrid[1,4]oxazin-6-yl)-5-fluoro-N2-[1-[3-(N-trifluoromethylsulfonylamino)propyl]indazol-5-yl]-2,4-pyrimidinediamine] |  | > 10 µM |  | 
CC(=O)NCCCn1c(C)nc2cc(Nc3ncc(F)c(Nc4ccc5c(n4)NC(=O)C(C)(C)O5)n3)ccc21 [Compound 953, N2-[1-[3-(N-Acetylamino)propyl]-2-methylbenzimidazol-5-yl]-N4-(2,2-Dimethyl-3-oxo-4H-5-pyrido[1,4]oxazin-6-yl)-5-fluoro-2,4-pyrimidinediamine] | < 10 µM | < 10 µM |  | 
N4-(2,2-Dimethyl-3-oxo-4H-5-pyrid[1,4]oxazin-6-yl)-N2-(1-methyl-2-trifluoromethylbenzimidazol-5-yl)-2,4-pyrimidinediamine [Compound 915] |  | < 10 µM |  | 
CNC(=O)COc1c(C)cc(Nc2ncc(F)c(Nc3ccc4c(c3)NC(=O)C(C)(C)O4)n2)cc1C [Compound 574, N2-[3,5-dimethyl-4-(N-methylamino)carbonylmethyleneoxyphenyl]-N4-(2,2-dimethyl-3-oxo-4H-benz[1,4]oxazin-6-yl)-5-fluoro-2,4-pyrimidinediamine] | < 10 µM | < 10 µM |  | 
COc1cc(Nc2ncc(F)c(Nc3ccc4c(n3)NC(=O)C(C)(C)O4)n2)cc(OC)c1OC.O=S(=O)(O)c1cccnc1 [Compound 678, N4-(2,2-Dimethyl-3-oxo-4H-5-pyrid[1,4]oxazin-6-yl)-5-fluoro-N2-(3,4,5-trimethoxyphenyl)-2,4-pyrimidinediamine 0.5 Pyridine-3-sulfonic Acid Salt] | < 10 µM | < 10 µM |  | 
CC1(C)C(=O)Nc2cc(Nc3nc(Cl)ncc3F)ccc2S1(=O)=O [Compound 318, N2-Chloro-N4-(2,2-dimethyl-1,1,3-trioxo-4H-benzo[1,4]thiazin-6-yl)-5-fluoro-4-pyrimidinea mine] |  |  |  | IC50 [5]: < 10 µM
C[C@@H]1Oc2ccc(Nc3nc(NC4=CC=CC(=CN)C4)ncc3F)cc2NC1=O [Compound 1279] |  |  |  | IC50 (Homo sapiens, Mast cell, low cell density CHMC, 3pt, read-out: LD Tryptase, CHMC, IgE, 3pt): < 10 µM; IC50 (Homo sapiens, Mast cell, low cell density CHMC, 8pt, read-out: LD Tryptase, CHMC, IgE, 8pt): < 10 µM
Cn1nc(N)c2cc(Nc3ncc(F)c(Nc4ccc5c(n4)NC(=O)C(C)(C)O5)n3)ccc21 [Compound 837, N2-(3-A mino-1-methylindazol-5-yl)-N4-(2,2-dimethyl-3-oxo-4H-5-pyrid[1,4]oxazin-6-yl)-5-fluoro-2,4-pyrimidinediamine] | < 10 µM | < 10 µM |  | 
COc1cc(Nc2ncc(F)c(Nc3ccc4c(n3)NC(=O)C(C)(C)O4)n2)cc(OC)c1OCCN1CCOCC1 [Compound 692, N2-[3,5-Dimethoxy-4-(2-(N-morpholino)ethyloxo)phenyl]-N4-(2,2-dimethyl-3-oxo-4H-5-pyrid[1,4]oxazin-6-yl)-5-fluoro-2,4-pyrimidinediamine] | < 10 µM | < 10 µM |  | 
(R)—N2-[3-(N-tert-Butoxycarbonylamino)methylenephenyl]-5-fluoro-N4-(2-methyl-3-oxo-2H,4H-benz[1,4]oxazin-6-yl) [Compound 1277] |  |  |  | IC50 [5]: < 10 µM; IC50 [6]: < 10 µM
COc1cc(Nc2ncc(F)c(Nc3ccc4c(c3)NCC(C)(C)O4)n2)cc(OC)c1 [Compound 1002, N4-(3,4-Dihydro-2,2-dimethyl-4H-benz[1,4]oxazin-6-yl)-N2-(3,5-dimethoxyphenyl)-5-fluoro-2,4-pyrimidinediamine] |  | < 10 µM |  | 
Cc1cc(Nc2ncc(F)c(Nc3ccc4c(n3)NCCO4)n2)ccc1N1CCN(C)CC1 [Compound 1203, N4-(3,4-Dihydro-2H,4H-5-pyrid[1,4]oxazin-6-yl)-5-fluoro-N2-[3-methyl-4-(4-methylpiperazino)phenyl]-2,4-pyrimidinediamine] |  |  |  | IC50 [5]: < 10 µM; IC50 [6]: < 10 µM
CNC(=O)COc1c(C)cc(Nc2ncc(F)c(Nc3ccc4c(c3)OCCO4)n2)cc1C [Compound 572, N2-[3,5-dimethyl-4-(N-methylamino)carbonylmethyleneoxyphenyl]-N4-(3,4-ethylenedioxyphenyl)-5-fluoro-2,4-pyrimidinediamine] | < 10 µM | < 10 µM |  | 
Cn1c(CN2CCOCC2)nc2cc(Nc3ncc(F)c(Nc4ccc5c(n4)NC(=O)C(C)(C)O5)n3)ccc21 [Compound 958, N4-(2,2-Dimethyl-3-oxo-4H-5-pyrido[1,4]oxazin-6-yl)-5-fluoro-N2-[1-methyl-2-(4-morpholinomethyl)benzimidazol-5-yl]-2,4-pyrimidinediamine] |  | < 10 µM |  | 
CCOCCCn1ncc2cc(Nc3ncc(F)c(Nc4ccc5c(n4)NC(=O)C(C)(C)O5)n3)ccc21 [Compound 875, N4-(2,2-Dimethyl-3-oxo-4H-5-pyrid[1,4]oxazin-6-yl)-N2-[1-(3-ethoxypropyl)indazol-5-yl]-5-fluoro-2,4-pyrimidinediamine] | < 10 µM | < 10 µM |  | 

Second part, led by results:

IC50 [1] | IC50 [2] | IC50 [3] | Molecule | also measured
 |  | < 10 µM | Cc1c(O)cccc1Nc1ncc(F)c(Nc2ccc3c(n2)NC(=O)CO3)n1 [Compound 1063, 5-Fluoro-N2-(3-hydroxy-2-methylphenyl)-N4-(3-oxo-2H,4H-5-pyrid[1,4]oxazin-6-yl)-2,4-pyrimidinediamine] | 
 |  | < 10 µM | COc1ccc(Nc2ncc(F)c(Nc3ccc4c(n3)NC(=O)[C@H](C)O4)n2)cc1Cl [Compound 1081, (S)—N2-(3-Chloro-4-methoxyphenyl)-5-fluoro-N4-(2-methyl-3-oxo-2H,4H-5-pyrid[1,4]oxazin-6-yl)-2,4-pyrimidinediamine] | IC50 [4]: < 10 µM
 |  | < 10 µM | COc1cccc(Nc2ncc(F)c(Nc3ccc4c(n3)NC(=O)CO4)n2)c1C [Compound 1061, 5-Fluoro-N2-(3-methoxy-2-methylphenyl)-N4-(3-oxo-2H,4H-5-pyrid[1,4]oxazin-6-yl)-2,4-pyrimidinediamine] | 
 |  | < 10 µM | Cc1c(O)cccc1Nc1ncc(F)c(Nc2ccc3c(n2)NC(=O)C(C)(C)O3)n1 [Compound 1064, N4-(2,2-Dimethyl-3-oxo-4H-5-pyrid[1,4]oxazin-6-yl)-5-fluoro-N2-(3-hydroxy-2-methylphenyl)-2,4-pyrimidinediamine] | 
 |  | < 10 µM | CN1CCN(c2cccc(Nc3ncc(F)c(Nc4ccc5c(n4)NC(=O)CO5)n3)c2)CC1 [Compound 1074, 5-Fluoro-N2-[3-(4-methylpiperazion)phenyl]-N4-(3-oxo-2H,4H-5-pyrid[1,4]oxazin-6-yl)-2,4-pyrimidinediamine] | 
 |  | < 10 µM | CCOC(=O)N1CCN(c2cccc(Nc3ncc(F)c(Nc4ccc5c(n4)NCCO5)n3)c2)CC1 [Compound 1138, N4-(3,4-Dihydro-2H,4H-5-pyrid[1,4]oxazin-6-yl)-N2-[3-(4-ethoxycarbonylpiperazino)phenyl]-5-fluoro-2,4-pyrimidinediamine] | IC50 [4]: < 10 µM
< 10 µM | < 10 µM |  | CC(C)c1cccc(Nc2ncc(F)c(Nc3ccc4c(n3)NC(=O)C(C)(C)O4)n2)c1 [Compound 1003, N4-(2,2-Dimethyl-3-oxo-4H-5-pyrid[1,4]oxazin-6-yl)-5-fluoro-N2-(3-isopropylphenyl)-2,4-pyrimidinediamine] | 
 |  | < 10 µM | CC1(C)Oc2ccc(Nc3nc(Nc4cccc(N5CCOCC5)c4)ncc3F)nc2NC1=O [Compound 1078, N4-(2,2-Dimethyl-3-oxo-4H-5-pyrid[1,4]oxazin-6-yl)-5-fluoro-N2-(3-morpholinophenyl)-2,4-pyrimidinediamine] | 
 |  | < 10 µM | CCOC(=O)N1CCN(c2ccc(Nc3ncc(F)c(Nc4ccc5c(n4)NCCO5)n3)cc2)CC1 [Compound 1135, N4-(3,4-Dihydro-2H,4H-5-pyrid[1,4]oxazin-6-yl)-N2-[4-(4-ethoxycarbonylpiperazino)phenyl]-5-fluoro-2,4-pyrimidinediamine] | IC50 [4]: < 10 µM
 |  | < 10 µM | CN1CCN(c2cccc(Nc3ncc(F)c(Nc4ccc5c(n4)NC(=O)C(C)(C)O5)n3)c2)CC1 [Compound 1080, N4-(2,2-Dimethyl-3-oxo-4H-5-pyrid [1,4]oxazin-6-yl)-5-fluoro-N2-[3-(4-methylpiperazino)phenyl]-2,4-pyrimidinediamine] | 
